Measured values: publication PMC8312610, “F4, a collagen XIX-derived peptide, inhibits tumor angiogenesis through αvβ3 and α5β1 integrin interaction” (Cell Adhesion & Migration, 2021)
Entries after “also recorded” stand apart in the source; their conditions may differ. Positions of bridges follow the written chain, without caps; N, C: chain ends. No end group written: not given here.

Experiments:
α5β1 integrin [1] = experiment: Solid phase assay, direct binding to α5β1; set-up: species or system human; settings: coated integrin 26 × 10^−7 to 0.1 × 10^−7 mol/L; biotinylated-F4 26 × 10^−5 mol/L, or 20.8 × 10^−4 to 0.16 × 10^−4 mol/L; 90 min, room temperature, streptavidin-peroxidase/TMB, 450 nm; N = 2
Text: (§1) Figure 5. F4 directly binds to αvβ3 and α5β1 integrins. Direct interaction between αvβ3 or α5β1 integrin and F4 was studied using solid phase assays as described in the material and method section. The F4 peptide was biotinylated to allow its detection using the streptavidin-peroxidase complex. Different conditions were used. (a-b) The amounts of coated αvβ3 (a) or α5β1 integrin (b) were increased while biotinylated F4 peptide was kept constant. (c-d) The concentration of biotinylated F4 peptide was increased while coated amounts of αvβ3 (c) or α5β1 (d) integrins were kept constant. (e-f) Competitive assays were performed using increasing concentrations of F4 peptide while biotinylated-F4 peptide and αvβ3 (e) or α5β1 (f) integrins were kept constant. […]
(§2) Wells of a 96-well plate were coated with α5β1 (ref. 3230-A5-050, R&D systems) and/or αvβ3 integrin (ref. 3050-AV-050, R&D systems) at different concentrations ranging from 26 × 10^−7 mol/L to 0.1 × 10^−7 mol/L (100 μL per well in PBS). […] The intensity of the yellow coloration was measured at 450 nm with an LB940 spectrophotometer (Berthold Technologies).
(§3) The optimum integrin amount for the coating was determined using the above protocol and the optimum ligand concentration was sought using different dilutions of the biotinylated-F4 peptide ranging from 20.8 × 10^−4 to 0.16 × 10^−4 mol/L.

αvβ3 integrin = experiment: Solid phase assay, direct binding to αvβ3; set-up: species or system human; settings: coated integrin 26 × 10^−7 to 0.1 × 10^−7 mol/L; biotinylated-F4 26 × 10^−5 mol/L, or 20.8 × 10^−4 to 0.16 × 10^−4 mol/L; 90 min, room temperature, streptavidin-peroxidase/TMB, 450 nm; N = 2
Text: as §1, §2, §3

[2] = system: HUVEC (Human Umbilical Vein Endothelial Cells); experiment: HUVEC proliferation (crystal violet); type: cell-based; settings: 40 μM, 48 h, 5,000 HUVEC per well in ECGM, 560 nm, means ± SD (n = 16), N = 3
Procedure: Figure 1. […] 5,000 HUVEC were seeded in a 96 well plate and incubated with or without 40 μM NC1(XIX) or F4 for 48 hours. After washing, cells were fixed with glutaraldehyde and stained with crystal violet. Dye was eluted with 10% acetic acid and absorbance was read at 560 nm. The values are the means ± SD (n = 16). The experiment was repeated three times (N = 3) and the results presented in the figure correspond to the more representative one
(§4) Human Umbilical Vein Endothelial Cells (HUVEC) (Ref C-12253) were purchased from Promocell. They were grown in Endothelial Cell Growth Medium (ECGM) (Promocell, Ref C-22110: Basal medium supplemented with 0.02 mL/mL Fetal Calf Serum, 0.004 mL/mL Endothelial Cell Growth Supplement, 0.1 ng/mL Epidermal Growth Factor (recombinant human), 1 ng/mL Basic Fibroblast Growth Factor (recombinant human), 90 μg/mL Heparin, 1 μg/mL Hydrocortisone) at +37°C in a humid atmosphere containing 5% CO2. PromoCell Detach Kit was used for the detachment of HUVEC according to the manufacturer’s protocols (Promocell, ref C-41200).
For cell proliferation measurement, 5,000 HUVEC were seeded in 96-well plates and cultivated in ECGM with or without 40 μM NC1(XIX) or F4 at +37°C in a humid atmosphere containing 5% CO2. […] Dye was eluted with 10% (v/v) acetic acid and absorbance was read at 560 nm.

α5β1 integrin [3] = system: α5β1 integrin; set-up: method as in PMID 26975851; settings: NC1(XIX) covalently coupled to agarose beads, cortical protein extract; ref [27]; cited from earlier work
mouse melanoma model = settings: mouse melanoma model; ref [22],[23]; cited from earlier work
Text: (§5) The aim of the present work was to study the anti-angiogenic properties of F4 peptide. […] By affinity chromatography, we identified αvβ3 and α5β1 integrins as potential receptors for F4 peptide on endothelial cell surface. Using solid phase assays, ... || Type XIX collagen, that belongs to the FACIT family (Fibril-Associated Collagens with Interrupted Triple helices), is a minor collagen associated to the basement membrane zone.

melanoma cell = settings: earlier work of the authors; ref [22],[23]; cited from earlier work
Text: as §5

HUVEC = experiment: Capillary (pseudo-)tube formation on Matrigel; type: cell-based, human; settings: 40 µM
Procedure: Figure 2. NC1(XIX) and F4 inhibit endothelial cell in vitro pseudotube formation. 50,000 HUVEC were seeded in Matrigel coated well of a 48 well-plate and incubated with or without 40 μM NC1(XIX) or F4. Pseudotube formation was observed and photographed under an inverted microscope after 8 hours (a). The number of segments, of nodes and the total length of pseudotubes were quantified by the ImageJ software, using the Angiogenesis Analyzer tool (b). The values are the means ± SD (n = 8 replicates). *** p < 0.001). The experiment was repeated three times (N = 3)
as §4
The ability of HUVEC to form pseudo-tubes was investigated on Matrigel (Corning, ref 356237). Matrigel was loaded into 48-well plate and allowed to polymerize at +37°C for 2 h. 50,000 HUVEC suspended in Basal media supplemented with 0.004 mL/mL Endothelial Cell Growth Supplement, 90 μg/mL Heparin, 1 μg/mL Hydrocortisone with or without 40 μM NC1(XIX) or F4 were seeded into each well. Plates were incubated at +37°C in a humid atmosphere containing 5% CO2, 95% for 8 h. The formation of the capillary network was then imaged under an inverted light microscope. Quantitative evaluation of the capillary network was performed using the angiogenesis analyzer tool of ImageJ analysis software. The number of nodes, of segments and the total length of the capillary network were determined.

[4] = system: Sprague Dawley rat aortic rings; experiment: Ex vivo rat aortic ring assay (endothelial cell outgrowth); type: cell-based; settings: 40 μM, 14 days, Opti-MEM with 30 ng/mL VEGF, Matrigel, mean ± SD (n = 5), N = 2; p < 0.01 NC1(XIX), p < 0.001 F4
Procedure: Figure 3. NC1(XIX) and F4 inhibit endothelial cell ex vivo migration. Rat aortic rings were embedded in Matrigel in 24 well-plate and then incubated with or without 40 μM NC1(XIX) or F4 for 14 days. Micro-vessel outgrowth was observed under an inverted microscope after 14 days and photographed (a). Cell outgrowth from the tissue explant was measured using a home-made macro based on ImageJ analysis software. The results are presented as mean ± SD (n = 5 replicates) (b). The experiment was repeated twice (N = 2)
The ex vivo rat aortic ring assay was adapted from Baker et al.. Thoracic aorta was dissected from Sprague Dawley rat and stored in Opti-MEM (ThermoFisher, ref 31985062) supplemented with 1% penicillin/streptomycin in a Petri dish. Aorta was then cut into 0.5 mm rings that were incubated in Opti-MEM overnight at +37°C in a Petri dish. Matrigel (7 mg/mL) was loaded in 24-well plate and allowed to polymerize at +37°C for 30 min. The rings were carefully transferred from the Petri dish onto the Matrigel coated wells and were completely embedded by addition of Matrigel. The plate was incubated at +37°C for 30 min. Opti-MEM supplemented with 30 ng/mL VEGF with or without 40 μM NC1(XIX) or F4 was added. Plate was incubated at +37°C in a humid atmosphere containing 5% CO2 for 14 days. The supplemented culture medium was changed every 3 days. Rings were imaged under an inverted light microscope at 14 days. Quantitative evaluation of the angiogenic sprouting was determined by measuring the number of endothelial cell outgrowth from the primary tissue explant using a homemade macro based on ImageJ analysis software. The first step consisted in the semi-automatic selection of aortic ring shape at day 0 by manual threshold allowing the design of a top hat filter to obtain a relevant mask of this structure. The mask was then substracted from day 14 image to keep only outgrowing cells. The second step consisted in a manual threshold and the use of ‘Analyze Particules’ tool involving size criteria. The total cell number of cell outgrowing from the ring was determined.

[5] = system: inhibitory nerve terminal assembly; set-up: method as in PMID 26975851; settings: in vitro; ref [27]; cited from earlier work
[6] = 8 h, 50,000 HUVEC on Matrigel, ImageJ Angiogenesis Analyzer, p < 0.001 for NC1(XIX) and F4, n = 8, N = 3

Substance	binding to α5β1, concentration dependence (α5β1 integrin [1])	binding to αvβ3, concentration dependence (αvβ3 integrin)	effect on HUVEC proliferation [2]	purification of α5β1 integrin on immobilised peptide (α5β1 integrin [3])	in vivo tumor growth and angiogenesis (mouse melanoma model)	melanoma cell migration and invasion (melanoma cell)	decrease of the number of nodes vs control (HUVEC; [6])	decrease of the number of segments vs control (HUVEC; [6])	decrease of the total length of capillary tubes vs control (HUVEC; [6])	inhibition of pseudo-tube formation (HUVEC; 8 h, HUVEC on Matrigel, compared to control)	change of cell outgrowth from aortic ring vs control [4]	inhibitory nerve terminal assembly [5]
biotinylated-F4: The F4 peptide was biotinylated to allow its detection using the streptavidin-peroxidase complex (CNPEDCLYPVSHAHQR; disulfide 1-6 (inferred); also: biotinylated (position not given here))	dependent both on the receptor (Figure 5(a,b)) and on ligand (Figure 5(c,d)) concentrations	dependent both on the receptor (Figure 5(a,b)) and on ligand (Figure 5(c,d)) concentrations										
NPEDCLYPVSHAHQRTGGN [NC1(XIX), NC1(XIX) domain at the C-terminus of the α1(XIX) collagen chain]			not significantly modified; also recorded: does not affect endothelial cell proliferation	able to purify α5β1 integrin from cortical protein extract	strongly inhibits in vivo tumor growth as well as angiogenesis	inhibits melanoma cell migration and invasion	57%	33%	31%	strongly inhibited pseudo-tube formation	−57%	involved in triggering inhibitory nerve terminal assembly in vitro
